Results as given in US20250122155A1, “NOVEL INDOLE DERIVATIVE, PHARMACEUTICAL COMPOSITION COMPRISING SAME, AND USE THEREOF” (MITOIMMUNE THERAPEUTICS INC., priority 2021, published 2025).

Tested on: H9C2 cells
Assay: Protective effect on heart cells against t-BHP (LDH release)
Assay type: cell-based
Conditions: H9C2, t-BHP 400 μM, 2 hours, read-out: EC50 (μM), Cell Protection Effect against t-BHP in Heart Cells
Experimental: In order to identify the protective effect with regard to heart cells, H9C2 cells were divided into 96-well plates by 1.5×10^4, and cultured for 24 hours. The respective wells were treated with compounds of the examples 3× serial diluted to final concentrations of 30, 10, 3, 1, 0.3, 0.1, 0.03 and 0.01 μM, then incubated for 15 to 20 minutes. After treating with t-BHP with a final concentration of 400 μM, incubation was performed for 2 hours. To confirm the protective effect of each compound, a Cytotoxicity LDH assay kit [Dojindo; CK12] was used to measure the degree of extracellular secretion of LDH. After 2-hour treatment of the cells with t-BHP was completed, 100 μL each of the supernatant in which the cells were placed was collected and moved to a new 96-well plate. 100 μL/well of the assay buffer included in the kit (same amount as the sample) was added, followed by wrapping with foil and reacting for 30 minutes at room temperature. Observing the change of color in the sample, 50 μL/well of stop solution was added, then an iD3 spectrometer was used to measure absorbance at 490 nm and calculate the EC50 values. The EC50 of the compounds of the examples is preferably no more than 1.0 μM, and more preferably no more than 0.3 μM.

| EC50 [µM] | SMILES |
| --- | --- |
| ≤ 0.3 | COCCOCc1cc(NC2CCC(O)CC2)c2[nH]c(-c3ccccc3)cc2c1 (single isomer, unassigned) [Example 69-1, 4-((5-((2-methoxyethoxy)methyl)-2-phenyl-1H-indol-7-yl)amino)cyclohexan-1-ol] |
| ≤ 0.3 | COCCOCc1cc(NC2CCC(O)CC2)c2[nH]c(-c3ccccc3)cc2c1 (single isomer, unassigned) [Example 69-2, 4-((5-((2-methoxyethoxy)methyl)-2-phenyl-1H-indol-7-yl)amino)cyclohexan-1-ol] |
| ≤ 0.3 | COCCOCc1cc(NC2CCC(C)(O)CC2)c2[nH]c(-c3ccccc3)cc2c1 (single isomer, unassigned) [Example 70-1, 4-((5-((2-methoxyethoxy)methyl)-2-phenyl-1H-indol-7-yl)amino)-1-methylcyclohexane-1-ol] |
| ≤ 0.3 | COCCOCc1cc(NC2CCC(C)(O)CC2)c2[nH]c(-c3ccccc3)cc2c1 (single isomer, unassigned) [Example 70-2, 4-((5-((2-methoxyethoxy)methyl)-2-phenyl-1H-indol-7-yl)amino)-1-methylcyclohexane-1-ol] |
| ≤ 0.3 | COCCOCc1cc(N(C2CCCC2)C2CCCC2)c2[nH]c(-c3ccccc3)cc2c1 [Example 3, N,N-dicyclopentyl-5-(2-methoxyethoxymethyl)-2-phenyl-1H-indol-7-amine] |
| > 1 | COCCOCc1cc(N2CCOCC2)c2[nH]c(-c3ccccc3)cc2c1 [Example 5, 4-[5-(2-methoxyethoxymethyl)-2-phenyl-1H-indol-7-yl]morpholine] |
| ≤ 0.3 | COCCOCc1cc(NC2CCOC2)c2[nH]c(-c3ccccc3)cc2c1 (stereo not shown) [Example 6, 5-(2-methoxyethoxymethyl)-2-phenyl-N-tetrahydrofuran-3-yl-1H-indol-7-amine] |
| ≤ 0.3 | COCCOCc1cc(NC2COC2)c2[nH]c(-c3ccccc3)cc2c1 [Example 7, 5(2-methoxyethoxymethyl)-N-(oxetane-3-yl)-2-phenyl-1H-indol-7-amine] |
| ≤ 0.3 | COCCOCc1cc(NC2CCC2)c2[nH]c(-c3ccccc3)cc2c1 [Example 8, N-cyclobutyl-5-(2-methoxyethoxymethyl)-2-phenyl-1H-indol-7-amine] |
| ≤ 0.3 | COCCOCc1cc(N(C2CCC2)C2CCC2)c2[nH]c(-c3ccccc3)cc2c1 [Example 9, N,N-dicyclobutyl-5-(2-methoxyethoxymethyl)-2-phenyl-1H-indol-7-amine] |
| 0.3 to 1 | COCCOCc1cc(NC2CCC2)c2c(c1)cc(-c1ccccc1)n2C [Example 10, N-cyclobutyl-5-(2-methoxyethoxymethyl)-1-methyl-2-phenyl-indol-7-amine] |
| ≤ 0.3 | COCCOCc1cc(NCC(C)(C)C)c2[nH]c(-c3ccccc3)cc2c1 [Example 11, N-(2,2-dimethylpropyl)-5-(2-methoxyethoxymethyl)-2-phenyl-1H-indol-7-amine] |
| ≤ 0.3 | COCCOCc1cc(NCC2CCCC2)c2[nH]c(-c3ccccc3)cc2c1 [Example 12, N-(cyclopentylmethyl)-5-(2-methoxyethoxymethyl)-2-phenyl-1H-indol-7-amine] |
| ≤ 0.3 | COCCOCc1cc(NC2CCCCC2)c2[nH]c(-c3ccccc3)cc2c1 [Example 13, N-cyclohexyl-5-(2-methoxyethoxymethyl)-2-phenyl-1H-indol-7-amine] |
| ≤ 0.3 | COCCOCc1cc(NC2CCC(F)(F)CC2)c2[nH]c(-c3ccccc3)cc2c1 [Example 14, N-(4,4-difluorocyclohexyl)-5-(2-methoxyethoxymethyl)2-phenyl-1H-indol-7-amine] |
| ≤ 0.3 | COCCOCc1cc(NCC(C)C)c2[nH]c(-c3ccccc3)cc2c1 [Example 15, N-isobutyl-5-(2-methoxyethoxymethyl)-2-phenyl-1H-indol-7-amine] |
| ≤ 0.3 | CCCNc1cc(COCCOC)cc2cc(-c3ccccc3)[nH]c12 [Example 16, 5-(2-methoxyethoxymethyl)-2-phenyl-N-propyl-1H-indol-7-amine] |
| ≤ 0.3 | CCCCNc1cc(COCCOC)cc2cc(-c3ccccc3)[nH]c12 [Example 17, N-butyl-5-(2-methoxyethoxymethyl)-2-phenyl-1H-indol-7-amine] |
| ≤ 0.3 | CCC(CC)CNc1cc(COCCOC)cc2cc(-c3ccccc3)[nH]c12 [Example 18, N-(2-ethylbutyl)-5-(2-methoxyethoxymethyl)-2-phenyl-1H-indol-7-amine] |
| ≤ 0.3 | COCCOCc1cc(NCCC(C)C)c2[nH]c(-c3ccccc3)cc2c1 [Example 19, N-isopentyl-5-(2-methoxyethoxymethyl)-2-phenyl-1H-indol-7-amine] |

| EC50 [µM] | SMILES |
| --- | --- |
| ≤ 0.3 | CCC(C)Nc1cc(COCCOC)cc2cc(-c3ccccc3)[nH]c12 (stereo not shown) [Example 20, 5-(2(methoxyethoxymethyl)-2-phenyl)-N-sec-butyl-1H-indol-7-amine] |
| ≤ 0.3 | COCCOCc1cc(NCC2CC2)c2[nH]c(-c3ccccc3)cc2c1 [Example 21] |
| ≤ 0.3 | CCCC(C)Nc1cc(COCCOC)cc2cc(-c3ccccc3)[nH]c12 (stereo not shown) [Example 22, 5-(2-methoxyethoxymethyl)-N-(1-methylbutyl)-2-phenyl-1H-indol-7-amine] |
| ≤ 0.3 | CCC(CC)Nc1cc(COCCOC)cc2cc(-c3ccccc3)[nH]c12 [Example 23, N-(1-ethylpropyl)-5-(2-methoxyethoxymethyl)-2-phenyl-1H-indol-7-amine] |
| ≤ 0.3 | COCCOCc1cc(/N=C(/C)C(F)(F)F)c2[nH]c(-c3ccccc3)cc2c1 [Example 24, (E,Z)-1,1,1-trifluoro-N-[5-(2-methoxyethoxymethyl)-2-phenyl-1H-indol-7-yl]propane-2-imine] |
| ≤ 0.3 | COCCOCc1cc(NC(C)C(F)(F)F)c2[nH]c(-c3ccccc3)cc2c1 (stereo not shown) [Example 25, 5-(2-methoxyethoxymethyl)-2-phenyl-N-(2,2,2-trifluoro-1-methyl-ethyl)-1H-indol-7-amine] |
| ≤ 0.3 | COCCOCc1cc(NC(C)C(C)C)c2[nH]c(-c3ccccc3)cc2c1 (stereo not shown) [Example 26, N-(1,2-dimethylpropyl)-5-(2-methoxyethoxymethyl)-2-phenyl-1H-indol-7-amine] |
| ≤ 0.3 | COCCOCc1cc(NC(C)C)c2[nH]c(-c3ccccc3)cc2c1 [Example 27, N-isopropyl-5-(2-methoxyethoxymethyl)-2-phenyl-1H-indol-7-amine] |
| ≤ 0.3 | COCCOCc1cc(NCc2ccccc2)c2[nH]c(-c3ccccc3)cc2c1 [Example 28, N-benzyl-5-(2-methoxyethoxymethyl)-2-phenyl-1H-indol-7-amine] |
| ≤ 0.3 | COCCOCc1cc(NC2CCN(C(=O)OC(C)(C)C)CC2)c2[nH]c(-c3ccccc3)cc2c1 [Example 29, tert-butyl 4-[[5-(2-methoxyethoxymethyl)-2-phenyl-1H-indol-7-yl]amino]piperidine-1-carboxylate] |
| ≤ 0.3 | COCCOCc1cc(NC2CCN(S(C)(=O)=O)CC2)c2[nH]c(-c3ccccc3)cc2c1 [Example 31, 5-(2-methoxyethoxymethyl)-N-(1-methylsulfonyl-4-piperidyl)-2-phenyl-1H-indol-7-amine] |
| ≤ 0.3 | COCCOCc1cc(NC2CCS(=O)(=O)CC2)c2[nH]c(-c3ccccc3)cc2c1 [Example 32, N-(1,1-dioxothian-4-yl)-5-(2-methoxyethoxymethyl)-2-phenyl-1H-indol-7-amine] |
| ≤ 0.3 | COCCOCc1cc(NC2CC[S+]([O-])CC2)c2[nH]c(-c3ccccc3)cc2c1 (stereo not shown) [Example 33, 5-(2-methoxyethoxymethyl)-N-(1-oxothian-4-yl)-2-phenyl-1H-indol-7-amine] |
| ≤ 0.3 | COCCOCc1cc(NC2CCN(C)CC2)c2[nH]c(-c3ccccc3)cc2c1 [Example 34, 5-(2-methoxyethoxymethyl)-N-(1-methyl-4-piperidyl)-2-phenyl-1H-indol-7-amine] |
| ≤ 0.3 | CCOCCOCc1cc(NC2CCOCC2)c2[nH]c(-c3ccccc3)cc2c1 [Example 35, 5-(2-ethoxyethoxymethyl)-2-phenyl-N-tetrahydropyran-4-yl-1H-indol-7-amine] |
| ≤ 0.3 | CC(C)OCCOCc1cc(NC2CCCC2)c2[nH]c(-c3ccccc3)cc2c1 [Example 37, N-cyclopentyl-5-(2-isopropoxyethoxymethyl)-2-phenyl-1H-indol-7-amine] |
| ≤ 0.3 | CC(C)OCCOCc1cc(NC2CCOCC2)c2[nH]c(-c3ccccc3)cc2c1 [Example 38, 5-(2-isopropoxyethoxymethyl)-2-phenyl-Ntetrahydropyran-4-yl-1H-indol-7-amine] |
| 0.3 to 1 | COCCOCCOCc1cc(NC2CCOCC2)c2[nH]c(-c3ccccc3)cc2c1 [Example 40, 5-[2-(2-methoxyethoxy)ethoxymethyl]-2-phenyl-N-tetrahydropyran-4-yl-1H-indol-7-amine] |
| > 1 | COCCOCc1cc(NC2CCN(C(=O)Nc3cc(C(F)(F)F)cc(C(F)(F)F)c3)CC2)c2[nH]c(-c3ccccc3)cc2c1 [Example 41, N-[3,5-bis(trifluoromethyl)phenyl]-4-[[5-(2-methoxyethoxymethyl)-2-phenyl-1H-indol-7-yl]amino]piperidine-1-carboxamide] |
| 0.3 to 1 | COCCOCc1cc(NC2CCN(C(=O)Nc3cc(Cl)cc(Cl)c3)CC2)c2[nH]c(-c3ccccc3)cc2c1 [Example 42, N-(3,5-dichlorophenyl)-4-[[5-(2-methoxyethoxymethyl)-2-phenyl-1H-indol-7-yl]amino]piperidine-1-carboxamide] |
